Test results reported in patent US5747523A, “Substituted ethyl α,α-diarylmethyl ether derivatives” (Guilford Pharmaceuticals Inc., priority 1996, dated 1998).

Legend:
[1] = tested on: mesolimbic dopamine neurons; settings: rat; literature; cited from earlier work
MPTP induced toxicity = settings: mice; literature; cited from earlier work
[2] = molecular target: T1, human dopamine transporter (Homo sapiens, UniProt Q01959); test: uptake to binding ratio (Kiuptake/Kibinding); settings: hdat cho cells
T1 construct: expressed in transfected cells
Procedure: The experimental procedures for the assay of compounds are as follows.
All assays were performed using Chinese Hamster Ovary cells stably expressing the human dopamine transporter cDNA (HDAT cells). hDAT cells were distributed in 96-well plates and grown 3 to 4 days to confluency (~10^5 cells/well) in Ham's F12 medium containing 10% fetal calf serum.

[3] = molecular target: T1, human dopamine transporter; test: [3H]dopamine uptake inhibition in hDAT cells; format: cell-based; settings: hDAT CHO cells; 100 nM [3H]dopamine; 2 h pre-incubation at 37° C., 6 min at room temperature; read-out: Effect on Dopamine Uptake (Kiuptake)
[4] = molecular target: T2, cocaine binding site of the human dopamine transporter (Homo sapiens, UniProt Q01959); test: [3H]CFT binding (cocaine analogue displacement at the cocaine site of DAT); settings: hDAT CHO cells; 5 nM [3H]CFT; 2 h pre-incubation at 37° C., 6 min at room temperature
T2 construct: expressed in transfected cells
T2 sequence (Q01959 whole entry): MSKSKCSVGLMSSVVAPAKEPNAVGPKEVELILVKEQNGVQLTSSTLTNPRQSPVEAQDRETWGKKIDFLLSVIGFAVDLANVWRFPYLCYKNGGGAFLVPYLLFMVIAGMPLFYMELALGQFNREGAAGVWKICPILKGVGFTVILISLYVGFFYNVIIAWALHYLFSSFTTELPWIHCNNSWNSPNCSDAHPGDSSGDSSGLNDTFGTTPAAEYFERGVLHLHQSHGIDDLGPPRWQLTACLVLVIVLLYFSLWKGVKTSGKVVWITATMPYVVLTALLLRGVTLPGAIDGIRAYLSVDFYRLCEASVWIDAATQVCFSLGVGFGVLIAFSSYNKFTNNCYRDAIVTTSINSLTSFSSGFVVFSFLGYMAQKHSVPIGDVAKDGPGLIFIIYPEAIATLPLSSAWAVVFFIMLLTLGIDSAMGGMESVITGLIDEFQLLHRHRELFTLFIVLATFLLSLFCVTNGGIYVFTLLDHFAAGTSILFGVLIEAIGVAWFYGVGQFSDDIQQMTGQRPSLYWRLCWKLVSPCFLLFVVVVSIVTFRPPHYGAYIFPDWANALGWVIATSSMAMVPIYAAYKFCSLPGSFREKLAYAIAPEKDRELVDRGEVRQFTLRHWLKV

T1 sequence (Q01959 whole entry): as above

SMILES | attenuation of cocaine-induced activation of mesolimbic dopamine neurons [1] | preventing MPTP induced toxicity (MPTP induced toxicity) | Uptake to Binding Ratio (Kiuptake/Kibinding) [2] | Ki [3] | Ki [4]
Fc1ccc(C(OCCN2CCN(CCCc3ccccc3)CC2)c2ccc(F)cc2)cc1 [GBR 12909] | attenuate cocaine-induced activation of mesolimbic dopamine neurons |  |  |  | 
CS(=O)(=O)O.CS(=O)(=O)O.Fc1ccc(CCCN2CCN(CCOC(c3ccc(F)cc3)c3ccc(F)cc3)CC2)cc1 [GBR 13,098] |  | effective at preventing MPTP induced toxicity |  |  | 
Fc1ccc(C(OCCN2CCCC2)c2ccc(F)cc2)cc1 [1-[2-[Bis(4-fluorophenyl)methoxy]ethyl]pyrrolidine] |  |  | 2.623 | 947 nM | 361 nM
Fc1ccc(C(OCCN2CCCCC2)c2ccc(F)cc2)cc1 [1-[2-[Bis(4-fluorophenyl)methoxy]ethyl]piperidine] |  |  | 2.896 | 609 nM | 211 nM
